Reference: ChEMBL document CHEMBL4406894, “Design, synthesis and biological evaluation of novel desloratadine derivatives with anti-inflammatory and H1 antagonize activities” (Bioorg Med Chem Lett, 2019)
Active and inactive are the calls of the source. The rule behind the calls is not given here.

Assays:
[1] = Toxicity in Sprague-Dawley rat; details: in vivo
[2] = Toxicity in ICR mouse; details: in vivo
[3] = tested on: Mus musculus; test: Anti-inflammatory activity in DNFB-induced mouse ear edema model assessed as inhibition in ear swelling at 5 mg/kg relative to control; type: functional
[4] = organism: Mus musculus; details: BALB/C, at 5 mg/kg
[5] = Half life in dog liver microsomes incubated for 6 hrs by LC/MS analysis; type: ADME, Canis lupus familiaris, Microsome
[6] = Half life in monkey liver microsomes incubated for 6 hrs by LC/MS analysis; type: ADME, Macaca mulatta, Microsome; details: rhesus monkey
[7] = Half life in human liver microsomes incubated for 6 hrs by LC/MS analysis; type: ADME, Microsome
[8] = Half life in rat liver microsomes incubated for 6 hrs by LC/MS analysis; type: ADME, Microsome
[9] = Half life in mouse liver microsomes incubated for 6 hrs by LC/MS analysis; type: ADME, Microsome
[10] = Intrinsic clearance in human liver microsomes incubated for 6 hrs by LC/MS analysis; type: ADME, Microsome; details: read-out: CLH
[11] = Intrinsic clearance in monkey liver microsomes incubated for 6 hrs by LC/MS analysis; type: ADME, Macaca mulatta, Microsome; details: rhesus monkey, read-out: CLH
[12] = Intrinsic clearance in dog liver microsomes incubated for 6 hrs by LC/MS analysis; type: ADME, Canis lupus familiaris, Microsome; details: read-out: CLH
[13] = Intrinsic clearance in Rat liver microsomes incubated for 6 hrs by LC/MS analysis; type: ADME, Microsome; details: read-out: CLH
[14] = Intrinsic clearance in mouse liver microsomes incubated for 6 hrs by LC/MS analysis; type: ADME, Microsome; details: read-out: CLH
[15] = tested on: Mus musculus; test: Immunosuppressive activity in BALB/C mouse assessed as inhibition in TNFalpha production by TNFalpha level at 5 mg/kg by ELISA; type: functional
[16] = Half life in ICR mouse at 2.5 mg/kg, iv; type: ADME, organism-based; details: in vivo
[17] = Half life in Sprague-Dawley rat at 2 mg/kg, iv; type: ADME, organism-based; details: in vivo
[18] = Half life in Sprague-Dawley rat at 10 mg/kg, po; type: ADME, organism-based; details: in vivo
[19] = Clearance in ICR mouse at 2.5 mg/kg, iv; type: ADME, organism-based; details: in vivo
[20] = Clearance in Sprague-Dawley rat at 2 mg/kg, iv; type: ADME, organism-based; details: in vivo
[21] = Oral bioavailability in Sprague-Dawley rat at 10 mg/kg; type: ADME, organism-based; details: in vivo

SMILES: Clc1ccc2c(c1)CCc1cccnc1C2=C1CCNCC1 [DESLORATADINE]
- LD50 [1]: 250 mg/kg
- LD50 [2]: 250 mg/kg

SMILES: COc1cccc(OCC(O)CN2CCC(=C3c4ccc(Cl)cc4CCc4cccnc43)CC2)c1 (configuration not stated)
- inhibition in vivo at 5 mg/kg [3]: 43.1%
- inhibition [4]: Active

SMILES: OC(COc1ccccc1)CN1CCC(=C2c3ccc(Cl)cc3CCc3cccnc32)CC1 (configuration not stated)
- inhibition in vivo at 5 mg/kg [3]: 59.1%
- inhibition [4]: Active

SMILES: Cc1ccccc1OCC(O)CN1CCC(=C2c3ccc(Cl)cc3CCc3cccnc32)CC1 (configuration not stated)
- inhibition in vivo at 5 mg/kg [3]: 59.1%
- inhibition [4]: Active

SMILES: Cc1ncc2n1-c1ccc(Cl)cc1C(c1ccccc1F)=NC2 [MIDAZOLAM]
- half-life [5]: 2.81 min
- half-life [6]: 3.74 min
- half-life [7]: 12 min
- half-life [8]: 4.29 min
- half-life [9]: 8.06 min
- microsomal CLint [10]: 289 µL/min/mg
- microsomal CLint [11]: 927 µL/min/mg
- microsomal CLint [12]: 1230 µL/min/mg
- microsomal CLint [13]: 808 µL/min/mg
- microsomal CLint [14]: 430 µL/min/mg

SMILES: COc1ccccc1OC[C@@H](O)CN1CCC(=C2c3ccc(Cl)cc3CCc3cccnc32)CC1
- Activity [15]: 1.18 ng/mL

SMILES: COc1ccccc1OCCCN1CCC(=C2c3ccc(Cl)cc3CCc3cccnc32)CC1
- inhibition in vivo at 5 mg/kg [3]: 59.5%
- inhibition [4]: Active

SMILES: OC(COc1ccccc1F)CN1CCC(=C2c3ccc(Cl)cc3CCc3cccnc32)CC1 (configuration not stated)
- inhibition in vivo at 5 mg/kg [3]: 26%
- inhibition [4]: Active

SMILES: COc1ccccc1OC[C@H](O)CN1CCC(=C2c3ccc(Cl)cc3CCc3cccnc32)CC1
- Activity [15]: 1.21 ng/mL

SMILES: COc1ccccc1OCC(O)CN1CCC(=C2c3ccc(Cl)cc3CCc3cccnc32)CC1 (racemic)
- half-life [5]: 8.76 min
- inhibition in vivo at 5 mg/kg [3]: 59.2%
- Activity [15]: 1.14 ng/mL
- half-life [16]: 28.2 min
- half-life [17]: 54 min
- half-life [18]: 84 min
- clearance [19]: 99.5 mL/min/kg
- clearance [20]: 19.6 mL/min/kg
- bioavailability [21]: 18%
- half-life [7]: 7.74 min
- half-life [8]: 3.87 min
- half-life [9]: 1.47 min
- microsomal CLint [10]: 179 µL/min/mg
- microsomal CLint [12]: 158 µL/min/mg
- microsomal CLint [13]: 359 µL/min/mg
- microsomal CLint [14]: 945 µL/min/mg
- MTD [1]: 750 mg/kg
- MTD [2]: 750 mg/kg
